This passage reports IC50 and EC50 results from ChEMBL document CHEMBL4373717, “Coumarin-containing hybrids and their anticancer activities” (Eur J Med Chem, 2019).

For test [1], the system named is A549. Kind of test: Cytotoxicity against human A549 cells assessed as reduction in cell viability after 24 hrs by MTT assay. The test is classed as functional, cell-based. The conditions noted are these: A549, 24 h. (Tetrazolium dyes change colour on reduction, which living cells bring about.)
Another test deals with BT-20. Kind of test: Cytotoxicity against human BT20 cells assessed as reduction in cell viability after 24 hrs by MTT assay. It counts as functional, cell-based. The conditions noted are these: BT-20, 24 h.
For the next test, the system named is DU-145. Kind of test: Cytotoxicity against human DU145 cells assessed as reduction in cell viability after 24 hrs by MTT assay. It counts as functional, cell-based. As to conditions: DU-145, 24 h.
In another test the test system is SK-MEL-28. Kind of test: Cytotoxicity against human SK-MEL-28 cells assessed as reduction in cell viability after 24 hrs by MTT assay. As to conditions: SK-MEL-28, 24 h. It counts as functional, cell-based.
Test [2] relates to HeLa. Kind of test: Cytotoxicity against human HeLa cells assessed as reduction in cell viability after 68 hrs by MTT assay. It counts as functional, cell-based.
The test system of another test is K562. Kind of test: Cytotoxicity against human K562 cells assessed as reduction in cell viability after 68 hrs by MTT assay. It counts as functional, cell-based. As to conditions: K562, 68 h.
For test [3], the system named is A549. Kind of test: Cytotoxicity against human A549 cells assessed as reduction in cell viability after 68 hrs by MTT assay. The test is classed as functional, cell-based. As to conditions: A549, 68 h.
Test [4] concerns the target RAC-alpha serine/threonine-protein kinase (Homo sapiens, UniProt P31749). Kind of test: Inhibition of AKT phosphorylation in human K562 cells. The test is classed as cell-based.
In test [5] the test system is MCF7. Kind of test: Cytotoxicity against human MCF7 cells assessed as reduction in cell viability after 68 hrs by MTT assay. The test is classed as functional, cell-based. The conditions noted are these: MCF7, 68 h.
Test [6] deals with HeLa. Kind of test: Antiproliferative activity against human HeLa cells by MTT assay. The test is classed as functional, cell-based.
Test [7] deals with HepG2. Kind of test: Antiproliferative activity against human HepG2 cells after 72 hrs by ELISA. It counts as functional, cell-based. The conditions noted are these: HepG2, 72 h. A general note: In an ELISA, binding on a coated surface is turned into a signal by an enzyme label.
A further test has as its system Caco-2. Kind of test: Antiproliferative activity against human Caco2 cells after 72 hrs by ELISA. It counts as functional, cell-based. The conditions noted are these: Caco-2, 72 h.
Test [8] relates to MCF7. Kind of test: Antiproliferative activity against human MCF7 cells after 72 hrs by ELISA. As to conditions: MCF7, 72 h. It counts as functional, cell-based.
In a further test the test system is BHK-21. Kind of test: Cytotoxicity against BHK21 cells assessed as reduction in cell viability after 48 hrs by SRB assay. It counts as cell-based. As to conditions: Mesocricetus auratus, BHK-21, 48 h. A general note: In SRB staining, fixed cells bind dye roughly in proportion to their protein.
For the next test, the system named is NCI-H157. Kind of test: Cytotoxicity against human NCI-H157 cells assessed as reduction in cell viability after 48 hrs by SRB assay. The test is classed as functional, cell-based. As to conditions: NCI-H157, 48 h.
The subject of test [9] is MCF7. Kind of test: Cytotoxicity against human MCF7 cells assessed as reduction in cell viability by MTT assay. It counts as functional, cell-based. The conditions noted are these: Homo sapiens, MCF7.
The test system of test [10] is A549. Kind of test: Cytotoxicity against human A549 cells assessed as reduction in cell viability by MTT assay. The test is classed as functional, cell-based.
The test system of the next test is DLD-1. Kind of test: Cytotoxicity against human DLD1 cells assessed as reduction in cell viability. The test is classed as functional, cell-based.
In test [11] the test system is HepG2. Kind of test: Cytotoxicity against human HepG2 cells assessed as reduction in cell viability. It counts as functional, cell-based.
Test [12] deals with HepG2. Kind of test: Cytotoxicity against human HepG2 cells assessed as reduction in cell viability by MTT assay. The test is classed as functional, cell-based. The conditions noted are these: Homo sapiens, HepG2.

≈ marks a conversion by molar mass, not a printed value. A value given as a limit tells only on which side of the number the result lay.

Sequence of RAC-alpha serine/threonine-protein kinase (P31749 whole entry): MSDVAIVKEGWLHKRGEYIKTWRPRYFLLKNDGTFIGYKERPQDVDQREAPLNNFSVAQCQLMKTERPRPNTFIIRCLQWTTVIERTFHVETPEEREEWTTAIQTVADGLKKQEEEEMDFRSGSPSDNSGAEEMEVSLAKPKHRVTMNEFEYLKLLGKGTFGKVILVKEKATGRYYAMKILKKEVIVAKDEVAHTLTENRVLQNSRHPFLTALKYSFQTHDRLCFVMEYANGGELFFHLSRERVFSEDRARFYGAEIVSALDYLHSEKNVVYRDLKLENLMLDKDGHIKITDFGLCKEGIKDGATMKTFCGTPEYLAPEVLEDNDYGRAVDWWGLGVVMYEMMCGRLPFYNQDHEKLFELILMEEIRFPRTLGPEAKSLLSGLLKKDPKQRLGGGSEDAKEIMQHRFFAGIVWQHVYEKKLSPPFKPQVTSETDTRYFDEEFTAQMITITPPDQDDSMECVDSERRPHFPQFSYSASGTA

For the compound `O=C(Cn1nc(Cc2ccc(Cl)c(Cl)c2)[nH]c1=O)NNC(=O)c1cc2cc(Cl)ccc2oc1=O`, the half-maximal inhibitory concentration (IC50) in the test with A549 [1], in the test on BT-20, in the test on DU-145 and in the test with SK-MEL-28 was 3.1 to 37.9 µg/mL (≈ 5.93 to 72.5 µM) in each case.

In the case of `Cc1c(Cc2ccc(NC(=O)Nc3ccccc3Cl)nc2)c(=O)oc2cc(O)c(C(C)(C)C)cc12`, the IC50 (in general, the point on the concentration scale where inhibition reaches its midpoint) with HeLa [2] was 1.66 to 9.27 µM; in the test on K562, 1.66 to 9.27 µM; in the test on A549 [3] it was 1.66 to 9.27 µM; in [4], less than 10 µM; with MCF7 [5], 1.66 to 9.27 µM.

`CCOC(=O)c1sc(N/N=C(\C)c2cc3ccccc3oc2=O)nc1C`: the IC50 in the test with HeLa [6] lay within 9.1 to 569 nM.

As to `C/C(=N\Nc1c(Cl)cc(Cl)cc1Cl)c1ccc(NS(=O)(=O)c2ccc3oc(=O)ccc3c2)cc1`, the IC50 in the test on HepG2 [7], in the test with Caco-2 and with MCF7 [8] was 5.03 to 175 µM each time.

For the compound `O=C(Cn1nc(Cc2ccc(Br)cc2)[nH]c1=O)NNC(=O)c1cc2cc(Cl)cc(Cl)c2oc1=O`, the concentration for half-maximal inhibition (IC50) with A549 [1], in the test with BT-20, in the test on DU-145 and with SK-MEL-28 was 3.1 to 37.9 µg/mL (≈ 5.47 to 66.8 µM) each time.

`CCN(CC)c1ccc2cc(C(=O)NNC(=O)Cn3nc(Cc4cccc(Br)c4)[nH]c3=O)c(=O)oc2c1`: the IC50 in the test with A549 [1], in the test with BT-20, with DU-145 and with SK-MEL-28 was 3.1 to 37.9 µg/mL (≈ 5.44 to 66.6 µM) throughout.

Consider `O=C(Cn1nc(Cc2ccccc2Br)[nH]c1=O)NNC(=O)c1cc2cc(Cl)cc(Cl)c2oc1=O`, for which the half-inhibitory concentration (IC50) in the test on A549 [1], with BT-20, in the test on DU-145 and with SK-MEL-28 was 3.1 to 37.9 µg/mL (≈ 5.47 to 66.8 µM) in each case.

For `Cc1c(Cc2ccc(NC(=O)Nc3ccc(F)c(F)c3)nc2)c(=O)oc2cc(O)c(C(C)(C)C)cc12`, the IC50 in the test on HeLa [2] was 1.66 to 7.86 µM; in the test with K562, 1.66 to 7.86 µM; in the test with A549 [3] it was 1.66 to 7.86 µM; in test [4] it was less than 10 µM; in the test with MCF7 [5] it was 1.66 to 7.86 µM.

With `COc1ccc(NC(=O)Nc2ccc(Cc3c(C)c4cc(C(C)(C)C)c(O)cc4oc3=O)cn2)cc1`, the IC50 in the test with HeLa [2] is 1.66 to 9.27 µM; with K562, 1.66 to 9.27 µM; in the test with A549 [3] it was 1.66 to 9.27 µM; in test [4] it was less than 10 µM; in the test with MCF7 [5], 1.66 to 9.27 µM.

As to `O=c1oc2ccccc2cc1-c1nnc2n1N=C(c1ccc(F)cc1)CS2`, the IC50 in the test on BHK-21 and in the test on NCI-H157 was 1.01 to 5.72 µM in each case.

For the compound `O=c1oc2ccccc2cc1-c1nnc2n1N=C(c1ccc(Br)cc1)CS2`, the IC50 in the test on BHK-21 and in the test with NCI-H157 was 1.01 to 5.72 µM each time.

Regarding `Cc1c(Cc2ccc(NC(=O)Nc3ccc(Br)cc3)nc2)c(=O)oc2cc(O)c(C(C)(C)C)cc12`, the IC50 was 1.66 to 9.27 µM with HeLa [2]; 1.66 to 9.27 µM in the test on K562; 1.66 to 9.27 µM in the test with A549 [3]; less than 10 µM in [4]; 1.66 to 9.27 µM in the test on MCF7 [5].

For the compound `Cc1cc(=O)oc2cc(NC(=O)CNCc3cccnc3)ccc12`, the IC50 in the test on MCF7 [9] and with A549 [10] was 69.1 to 378 µM throughout.

In the case of `CCOC(=O)c1sc(N/N=C(\C)c2cc3cc(Br)ccc3oc2=O)nc1C`, in the test on HeLa [6], the IC50 lay within 9.1 to 569 nM.

For the compound `COc1ccc(/C(C)=N/Nc2ncc(C(=O)c3cc4ccccc4oc3=O)s2)cc1`, the concentration giving a half-maximal response (EC50) with DLD-1 and in the test with HepG2 [11] was 3.7 to 9.54 µg/mL (≈ 8.82 to 22.7 µM) throughout.

Regarding `C/C(=N\NC1=NC(=O)C(C)S1)c1ccc(NS(=O)(=O)c2ccc3oc(=O)ccc3c2)cc1` (stereo unspecified), the IC50 in the test with HepG2 [7], in the test on Caco-2 and in the test with MCF7 [8] was 5.03 to 175 µM in each case.

Turning to `CNc1ncc(C(=O)c2cc3ccccc3oc2=O)s1`, the IC50 with DLD-1 and with HepG2 [11] was 5.66 to 100 µg/mL (≈ 19.8 to 349 µM) in each case.

With `CCOC(=O)c1sc(N/N=C(\C)c2cc3cc(Cl)ccc3oc2=O)nc1C`, the IC50 in the test on HeLa [6] was 9.1 to 569 nM.

Regarding `Cc1ccc2oc(=O)cc(CSc3nc(NCc4ccccc4)c(C#N)c(-c4ccccc4)n3)c2c1`, the IC50 in the test on MCF7 [9] and in the test on HepG2 [12] was 5.5 to 91.1 µM in each case.

On to `C/C(=N\Nc1ccccc1)c1ccc(NS(=O)(=O)c2ccc3oc(=O)ccc3c2)cc1`, for which the half-inhibitory concentration (IC50) was 5.03 to 175 µM in the test with HepG2 [7], 8.53 µM with Caco-2 and 5.03 to 175 µM with MCF7 [8].

Take `O=C(CNCc1cccnc1)Nc1cc2ccccc2oc1=O`: the IC50 with MCF7 [9] and in the test on A549 [10] was 69.1 to 378 µM each time.

On to `O=C(Cn1nc(Cc2ccc(Cl)cc2)[nH]c1=O)NNC(=O)c1cc2cc(Cl)cc(Cl)c2oc1=O`, for which the IC50 in the test with A549 [1], in the test with BT-20, with DU-145 and in the test on SK-MEL-28 was 3.1 to 37.9 µg/mL (≈ 5.93 to 72.5 µM) each time.
